According to article PMC9983021, “Novel GluN2B-Selective NMDA Receptor Negative Allosteric Modulator Possesses Intrinsic Analgesic Properties and Enhances Analgesia of Morphine in a Rodent Tail Flick Pain Model” (ACS Chemical Neuroscience, 2023):
Where two headings read alike, the source gives them in different places.

Legend:
GluN1/GluN2D = GluN1/GluN2D (Rattus norvegicus, UniProt P35439+Q62645)
5-HT2B = 5-HT2B (Homo sapiens, UniProt P41595); experiment: Radioligand binding assay (NIMH PDSP)
Procedure: (§1) Compound EU93-108 was also tested for inhibition of binding of probes to a range of GPCRs and other targets (Table 4 and Supporting Table S4). […] EU93-108 produced significant displacement of binding probes for the 5-HT2 receptors and α-1-adrenergic receptors, as well as D3, H1, and σ1 receptors. Concentration–response binding competition curves for these targets were used to determine Ki values (Table 4). Given that the brain concentration of EU93-108 achieved 30 min post i.p. injection is 18 μM (Figure 6), the doses that yield our desired antinociceptive effects may engage some of the receptors listed in Table 4.
(§2) Conventional competition and saturation radioligand binding assays were used to determine the affinities of reference standards and EU93-108. Experiments were carried out by the NIMH Psychoactive Drug Screening Program (PDSP) and were performed as previously described.[123]
(§3) The detailed experimental protocols for the radioligand assays are available on the NIMH PDSP website at https://pdsp.unc.edu/pdspweb/content/UNC-CH%20Protocol%20Book.pdf.
(§4) Receptor Mean % Receptor Mean % Receptor Mean %
(§5) Inhibition Inhibition Inhibition
(§6) Supplemental Table S4. Off-Target Actions of EU93-108: Primary GPCR Screen. Cloned human molecular targets were individually expressed and submitted to molecular target-based screening with initial screens performed at a final concentration of 10 µM in quadruplicate. Complete protocols for the assays have been previously published (Besnard J et al. 2012). Where inhibition greater than 50% was measured, secondary screens were performed wherein Ki values were calculated (see Table 4).

Alpha1D (α1D) = target: T1, Alpha1D (α1D) (Homo sapiens, UniProt P25100); experiment: Radioligand binding assay (NIMH PDSP)
T1 sequence (P25100 1-572): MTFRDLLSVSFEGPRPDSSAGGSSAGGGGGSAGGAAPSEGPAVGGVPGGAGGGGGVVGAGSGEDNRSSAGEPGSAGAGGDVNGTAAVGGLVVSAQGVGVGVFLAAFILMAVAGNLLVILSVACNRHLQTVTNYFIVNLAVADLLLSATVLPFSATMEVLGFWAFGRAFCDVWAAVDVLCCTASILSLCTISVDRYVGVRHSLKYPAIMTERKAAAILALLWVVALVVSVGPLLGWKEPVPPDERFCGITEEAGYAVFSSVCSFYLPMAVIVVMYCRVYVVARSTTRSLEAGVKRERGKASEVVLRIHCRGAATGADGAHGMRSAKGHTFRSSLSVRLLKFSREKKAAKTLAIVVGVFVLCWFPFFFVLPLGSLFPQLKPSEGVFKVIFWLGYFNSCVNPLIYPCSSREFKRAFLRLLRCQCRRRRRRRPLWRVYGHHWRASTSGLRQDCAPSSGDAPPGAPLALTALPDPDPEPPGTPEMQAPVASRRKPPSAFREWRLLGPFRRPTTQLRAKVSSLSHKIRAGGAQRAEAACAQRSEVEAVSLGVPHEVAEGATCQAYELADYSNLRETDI
Procedure: as §1, §2, §3, §4, §5, §6

H1 = H1 (Homo sapiens, UniProt P35367); experiment: Radioligand binding assay (NIMH PDSP); details: for Ki: secondary screen, binding competition curve
Procedure: as §1, §2, §3, §4, §5, §6

Alpha2A (α2A) = target: T2, Alpha2A (α2A) (Homo sapiens, UniProt P08913); experiment: Radioligand binding assay (NIMH PDSP)
T2 sequence (P08913 1-465): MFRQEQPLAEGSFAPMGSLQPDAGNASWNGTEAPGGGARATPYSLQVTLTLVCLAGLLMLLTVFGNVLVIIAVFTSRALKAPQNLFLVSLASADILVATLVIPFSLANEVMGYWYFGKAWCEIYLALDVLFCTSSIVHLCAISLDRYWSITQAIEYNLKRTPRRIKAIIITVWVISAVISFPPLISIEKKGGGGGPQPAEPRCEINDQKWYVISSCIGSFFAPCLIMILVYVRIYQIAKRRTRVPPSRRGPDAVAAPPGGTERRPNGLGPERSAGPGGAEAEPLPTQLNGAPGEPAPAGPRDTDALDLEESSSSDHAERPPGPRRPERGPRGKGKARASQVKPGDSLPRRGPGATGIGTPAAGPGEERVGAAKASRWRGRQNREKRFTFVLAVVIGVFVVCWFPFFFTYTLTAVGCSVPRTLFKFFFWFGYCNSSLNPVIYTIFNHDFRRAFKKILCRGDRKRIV
Procedure: as §1, §2, §3, §4, §5, §6

[1] = target: diheteromeric rat GluN1/GluN2Ac1/GluN2Ac2 (r2Ac1/r2Ac2) (Rattus norvegicus, UniProt P35439+Q00959); experiment: Concentration-inhibition curves, oocytes, C1/C2-tagged NMDARs
[2] = primary screen, 10 µM, quadruplicate
[3] = ratio of Ki to the IC50 for EU93-108 (555 nM) at GluN2B
[4] = secondary screen, binding competition curve

Chain of H1 (P35367 whole entry): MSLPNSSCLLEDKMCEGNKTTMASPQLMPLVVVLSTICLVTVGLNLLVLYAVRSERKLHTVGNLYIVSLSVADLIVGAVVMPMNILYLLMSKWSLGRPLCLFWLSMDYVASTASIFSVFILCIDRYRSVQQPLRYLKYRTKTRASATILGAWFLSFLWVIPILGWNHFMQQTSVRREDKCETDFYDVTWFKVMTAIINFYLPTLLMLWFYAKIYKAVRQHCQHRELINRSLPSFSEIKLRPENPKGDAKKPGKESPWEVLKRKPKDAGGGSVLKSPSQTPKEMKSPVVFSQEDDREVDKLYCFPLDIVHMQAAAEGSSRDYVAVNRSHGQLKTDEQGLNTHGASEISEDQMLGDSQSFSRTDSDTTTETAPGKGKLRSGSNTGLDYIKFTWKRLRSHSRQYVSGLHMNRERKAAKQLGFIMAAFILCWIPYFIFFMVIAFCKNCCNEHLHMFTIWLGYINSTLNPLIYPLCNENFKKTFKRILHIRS
Chain of 5-HT2B (P41595 whole entry): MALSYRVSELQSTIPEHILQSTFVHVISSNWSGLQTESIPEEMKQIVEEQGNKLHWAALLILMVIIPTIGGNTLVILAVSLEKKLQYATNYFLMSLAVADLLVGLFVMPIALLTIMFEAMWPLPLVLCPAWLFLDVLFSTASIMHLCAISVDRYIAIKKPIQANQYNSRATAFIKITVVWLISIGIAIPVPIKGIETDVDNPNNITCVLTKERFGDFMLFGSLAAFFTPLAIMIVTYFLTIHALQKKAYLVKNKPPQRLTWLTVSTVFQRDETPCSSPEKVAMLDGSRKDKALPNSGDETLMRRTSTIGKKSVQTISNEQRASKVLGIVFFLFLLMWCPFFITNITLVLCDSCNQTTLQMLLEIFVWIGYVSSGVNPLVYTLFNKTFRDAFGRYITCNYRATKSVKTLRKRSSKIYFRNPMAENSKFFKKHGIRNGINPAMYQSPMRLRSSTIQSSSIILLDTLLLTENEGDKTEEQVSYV
Chain of GluN1/GluN2D (Q62645 28-1323, other chains not shown): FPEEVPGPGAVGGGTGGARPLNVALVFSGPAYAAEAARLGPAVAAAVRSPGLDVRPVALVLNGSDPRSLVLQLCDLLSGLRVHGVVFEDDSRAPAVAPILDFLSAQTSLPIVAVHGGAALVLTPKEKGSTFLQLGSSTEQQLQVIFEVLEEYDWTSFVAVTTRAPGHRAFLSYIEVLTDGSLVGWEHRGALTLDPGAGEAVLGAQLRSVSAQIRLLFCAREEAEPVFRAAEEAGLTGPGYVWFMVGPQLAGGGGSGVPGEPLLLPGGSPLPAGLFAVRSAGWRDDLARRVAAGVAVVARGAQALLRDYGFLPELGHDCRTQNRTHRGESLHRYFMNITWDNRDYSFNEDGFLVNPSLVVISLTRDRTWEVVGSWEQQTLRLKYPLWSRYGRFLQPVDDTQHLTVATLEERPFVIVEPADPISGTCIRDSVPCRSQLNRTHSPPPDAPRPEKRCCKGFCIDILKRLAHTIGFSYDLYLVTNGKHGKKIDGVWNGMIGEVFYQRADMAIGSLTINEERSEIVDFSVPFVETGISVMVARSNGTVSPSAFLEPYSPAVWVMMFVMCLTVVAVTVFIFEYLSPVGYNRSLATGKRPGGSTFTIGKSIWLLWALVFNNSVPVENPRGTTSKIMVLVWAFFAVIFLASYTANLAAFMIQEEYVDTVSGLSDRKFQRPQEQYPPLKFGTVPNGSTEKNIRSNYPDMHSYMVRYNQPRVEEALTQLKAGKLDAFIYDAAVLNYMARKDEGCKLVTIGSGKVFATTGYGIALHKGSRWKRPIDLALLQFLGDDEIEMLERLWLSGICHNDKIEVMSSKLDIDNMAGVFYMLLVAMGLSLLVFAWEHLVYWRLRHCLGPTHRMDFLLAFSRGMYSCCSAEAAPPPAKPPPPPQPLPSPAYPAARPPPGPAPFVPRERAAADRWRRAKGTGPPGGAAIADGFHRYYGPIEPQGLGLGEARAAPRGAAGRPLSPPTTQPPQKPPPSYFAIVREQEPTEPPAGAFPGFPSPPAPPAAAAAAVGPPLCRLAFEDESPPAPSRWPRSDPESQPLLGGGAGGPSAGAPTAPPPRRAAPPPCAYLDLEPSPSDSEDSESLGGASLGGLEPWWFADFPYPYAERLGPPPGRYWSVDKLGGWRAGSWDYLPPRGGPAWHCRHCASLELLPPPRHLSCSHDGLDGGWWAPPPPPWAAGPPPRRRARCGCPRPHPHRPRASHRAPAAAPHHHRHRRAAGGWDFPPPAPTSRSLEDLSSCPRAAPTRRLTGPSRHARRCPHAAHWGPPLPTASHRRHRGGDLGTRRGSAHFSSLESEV

## CS(=O)(=O)Nc1ccc(OC[C@@H](O)CN2CCN(c3ccc(F)c(F)c3)CC2)cc1 [EU93-108, (S)-N-(4-(3-(4-(3,4-Difluorophenyl)piperazin-1-yl)-2-hydroxypropoxy)phenyl)methanesulfonamide]
GluN1/GluN2D; agonist 100 µM glutamate, 30 µM glycine, mean ± SEM
  % Control 10 µM EU93-108: 97 ± 1.9%
GluN1/GluN2D; read-out: Mean % Inhibition by 10 μM EU93-108
  inhibition at 10 µM: 4.6 ± 1.2%
5-HT2B; [2]
  inhibition at 10 µM: 67.4%
5-HT2B; [3]
  Ki/IC50 of EU93-108: 1.75
5-HT2B; [4]
  Ki: 0.976 µM
Alpha1D (α1D); [2]
  inhibition at 10 µM: 76.7%
Alpha1D (α1D); [3]
  Ki/IC50 of EU93-108: 0.65
Alpha1D (α1D); [4]
  Ki: 0.359 µM
H1; [2]
  inhibition at 10 µM: 76.9%
H1; [3]
  Ki/IC50 of EU93-108: 0.46
H1; read-out: Ki
  Ki: 0.254 µM
H1; read-out: log(Ki) (converted)
  Ki: 0.257 µM
Alpha2A (α2A); [2]
  inhibition at 10 µM: 77.7%
Alpha2A (α2A); [3]
  Ki/IC50 of EU93-108: 2.07
Alpha2A (α2A); [4]
  Ki: 1.15 µM
[1]; 10 μM, % of maximal response, n = 6
  residual current at 10 μM: 105%
[1]; residual response, Table S1, N = 6
  Ymin: 104.8
